# Article PMC12236907, “A Natural Depsipeptide Antibiotic that Targets the E site of the Bacterial Ribosome” (Research Square, 2025)
# Where a SMILES comes first, the peptide text is derived from it. Bridges are numbered along the chain shown (N, C = ends). [ ]: non-standard residue; d: D form. dOrn = NCCC[C@@H](N)C(=O)O
# Key:
# [1] = tested on: E. coli strain SQ110ΔtolC::pZsbmA; assay: Minimum inhibitory concentration, hypersusceptible E. coli SQ110ΔtolC::pZsbmA and its 23S rRNA mutants; conditions: 11 mutants: deletion of one adenine in A2432-A2435 (10) or of C249 (1) in 23S rRNA
# [2] = tested on: 70S ribosome (50S subunit); assay: Cryo-EM of MKM-stalled ribosome complexes; format: binding, E. coli; conditions: ermBL MKM-SRC, 50 μM MKM
# Experimental: MKM-ribosome complexes were generated by in vitro translation reactions in the PURExpress In vitro Protein Synthesis Kit (NEB) as described by the manufacturer. Complex formation reactions were carried out on ermBL toeprint mRNA template (Supplementary Table 7) in a 75 μl of reaction in presence of 50 μM MKM. The reaction was incubated for 15 min at 37 °C. The reaction volume was then split: 69 μl were used for complex generation and 6 μl were further analyzed by toeprinting. Ribosome complexes were isolated by centrifugation in 900 μl of sucrose gradient buffer (containing 40% sucrose, 50 mM HEPES-KOH, pH 7.4, 100 mM KOAc, 25 mM Mg(OAc)2 and 6 mM 2-mercaptoethanol) for 3 h at 4 °C with 80,000 g in a Optima Max-XP Tabletop Ultracentrifuge with a TLA 120.2 rotor. […]
# Cryo-EM grids were prepared by applying 3.5 μl of MKM-70S complexes onto freshly glow-discharged Quantifoil R3.5/1 grids (copper, 300 mesh, with an additional 3 nm carbon layer; Product: C3-C19nCu30–01). […]
# Movies were captured at a nominal magnification of 105,000×, corresponding to a calibrated pixel size of 0.832 Å (0.416 Å in super-resolution mode, binned 2× via EPU). […] Each exposure lasted 1.95 seconds in nanoprobe mode, during which 35 frames were recorded at a dose rate of ~1.14 electrons per frame per Å^2, resulting in a total accumulated dose of approximately 40 electrons per Å^2 (~15 e^−/px/s over vacuum). […]
# [3] = tested on: E. coli BW25113 ΔtolCΔbamB expressing ManE; assay: MIC in ManE-expressing E. coli; conditions: manE on pGDP3
# [4] = tested on: E. coli BW25113; assay: Bacterial cell morphology by scanning electron microscopy; format: cell-based; conditions: E. coli BW25113, 32 and 80 μg/ml, MOPS minimal medium, 1 h at 37°C
# Experimental: After treatment, the cells were centrifuged at 5,000×g for 5 min, then resuspended in a fixative solution (4% glutaraldehyde in PBS, pH 7.4) at 0.1× the original volume. The cells were fixed at room temperature for 1 h and stored overnight at 4 °C. The following day, 50 μl of the fixed cells were transferred onto coverslips coated with poly-L-lysine, dehydrated through a series of ethanol treatments, and dried using a critical point dryer. The samples were then examined with a scanning electron microscope (TESCAN VEGA-II LSU) equipped with an X-MAX 80mm^2 EDS detector, and images were captured using INCA software.
# [5] = tested on: E. coli; assay: Antimicrobial activity, E. coli; format: cell-based, Escherichia coli
# [6] = tested on: multi-drug-resistant Enterobacteriaceae
smiles,measurement,setting,value
"C[C@@H](O)[C@@H]1NC(=O)[C@@H](CCCNC(=N)N)NC(=O)[C@@H](CCCNC(=N)N)NC(=O)[C@@H](CC(N)=O)NC(=O)[C@@H](NC(=O)[C@@H](Cc2ccccc2)NC(=O)[C@@H](CCCN)NC(=O)[C@H](N)CCCNC(=N)N)[C@@H](C)OC(=O)[C@H](Cc2c[nH]cn2)NC1=O [MKM, manikomycin A] (H-[dR][dOrn][dF]T[dN][dR][dR]TH; ester 4-C)",increase in MKM MIC,[1],> 16 fold
same,second binding site,[2],at the back of the 50S subunit
same,primary binding site,[2]; 2.4 Å focused refinement on 50S,located within the E site of the 50S subunit
same,increase in MIC on ManE expression,[3],> 32 fold
same,bacterial cell morphology,[4],no detectable changes in bacterial cell morphology
same,antimicrobial activity,[5],selective antimicrobial activity
same,killing of multi-drug-resistant Enterobacteriaceae,[6],can kill
